The data set in a line: solvent given as SMILES.

Under “in C1CCOC1”, `FC(F)(F)C(F)(F)C(F)(F)C1=NC2=C(c3ccccc3)C=C3c4cc(-c5ccccc5)c5nc(C(F)(F)C(F)(F)C(F)(F)F)nc6c(-c7ccccc7)cc(c4c56)=C4C=C(c5ccccc5)C(=N1)C2C34` (stereo not drawn) returned a fluorescence lifetime of 3.2 ns.
In the case of `CC[n+]1c(C=C2C(=O)C(C=C3N(C)c4ccccc4C3(C)C)=C2[O-])[se]c2ccccc21`, the fluorescence lifetime (in CO) was 0.41 ns and the fluorescence lifetime (in ClC(Cl)Cl) was 2.44 ns.
The compound `CC(C)(C)c1ccc(C2=c3sc(-c4ccc(C(C)(C)C)cc4)c(-c4ccc(C(C)(C)C)cc4)c3=[N+]3C2=Nc2c(-c4ccc(C(C)(C)C)cc4)c4sc(-c5ccc(C(C)(C)C)cc5)c(-c5ccc(C(C)(C)C)cc5)c4n2[B-]3(F)F)cc1` showed a fluorescence lifetime (in ClC(Cl)Cl) of 1.18 ns.
With `Nc1ccc2c(ccc3[n+]2[B-](F)(F)n2c-3cc3c4ccccc4c4ccccc4c32)c1`, where the note is “in ClCCl”, the fluorescence lifetime amounted to 2.96 ns.
The same measure, in the same setting: the result for `O=[N+]([O-])c1ccc(/C2=C3N=C(C(c4ccccc4)=C/3c3ccccc3)/C(c3ccc([N+](=O)[O-])cc3)=c3\[nH]/c(c(-c4ccccc4)c3-c3ccccc3)=C(/c3ccc([N+](=O)[O-])cc3)C3=N/C(=C(/c4ccc([N+](=O)[O-])cc4)c4[nH]c2c(-c2ccccc2)c4-c2ccccc2)C(c2ccccc2)=C3c2ccccc2)cc1` reads 0.395 ns.
The compound `COc1cc2c(cc1-c1cccs1)Cc1c3c(c4c(c1-2)-c1cc(OC)c(-c2cccs2)cc1C4)C(=O)N(CCC(C)C)C3=O` yielded a fluorescence lifetime (in C1CCOC1) of 3.18 ns.
Compound `CCCCCCN1C(=O)c2cccc3c(-c4sc(-c5ccc6c7c(cccc57)C(=O)N(CCCCCC)C6=O)c5c4OCCO5)ccc(c23)C1=O` came in with a fluorescence lifetime (in ClC(Cl)Cl) of 0.462 ns.
The compound `CC(C)c1cccc(C(C)C)c1N1C(=O)c2cccc3c(Oc4ccc(C(C)(C)c5ccccc5)cc4)ccc(c23)C1=O` displayed a fluorescence lifetime (in ClCCl) of 1.2 ns.
For the compound `F[B-]1(F)n2c(cc3c4ccccc4oc32)C(c2ccccc2)=C2C=c3c(oc4ccccc34)=[N+]21`, the fluorescence lifetime by setting is: (in C1CCCCC1) 3.99 ns; (in CCOC(C)=O) 4.1 ns; (in CO) 4.02 ns.
In turn, `Fc1cc(-c2nc(-c3ccccc3)nc(-c3ccccc3)n2)ccc1-n1c2ccccc2c2c3c(ccc21)C1(c2ccccc2-c2ccccc21)c1ccccc1-3` came in with a fluorescence lifetime (in O=P(c1ccccc1)(c1ccccc1)c1ccccc1Oc1ccccc1P(=O)(c1ccccc1)c1ccccc1) of 8.3 ns.
For the compound `Oc1ccccc1`, the fluorescence lifetime (in C1CCCCC1) worked out at 2.5 ns.
On to `CN(C)c1ccc(/C=C/c2nc3c4ccccc4c4ccccc4c3o2)cc1`, for which, under “in CC#N”, the fluorescence lifetime came out at 2.13 ns.
Compound `Cc1cc(C)c(B(c2cc3ccc4cccc5ccc(c2)c3c45)c2c(C)cc(C)cc2C)c(C)c1` came in with a fluorescence lifetime (in Cc1ccccc1) of 49 ns.
`CCN(CC)c1ccc2c(-c3ccccc3C(=O)O)c3c([o+]c2c1)/C(=C/c1ccc(N(C)C)cc1)CCC3`: the fluorescence lifetime (in ClCCl) was 0.25 ns.
As to `Cc1ccc(-c2cc(-c3ccccc3)c3c(N)nc(N4CCCC4)c(C#N)c3n2)cc1`, the fluorescence lifetime runs as follows: (in CC#N) 10.3 ns; (in CC(C)=O) 9.9 ns; (in CC(C)O) 10.4 ns; (in CO) 8.5 ns; (in ClC(Cl)Cl) 13.1 ns; (in ClCCl) 13.1 ns. For the same compound, the fluorescence lifetime (in c1ccccc1) is 12.6 ns.
As for `COc1nc(Cl)nc(Nc2ccc3c4c(cccc24)C(=O)c2ccccc2-3)n1`, the fluorescence lifetime runs as follows: (in CC#N) 8.4 ns; (in CC(C)=O) 7.7 ns; (in CC(C)O) 8 ns; (in CCCCOCCCC) 0.9 ns; (in CCOC(C)=O) 3.9 ns; (in CCOCC) 1.6 ns. The fluorescence lifetime runs as follows: (in CO) 7.7 ns; (in Cc1ccccc1) 2.8 ns; (in Clc1ccccc1) 5.4 ns; (in N#Cc1ccccc1) 7.8 ns; (in O=C1CCCCC1) 6.3 ns.
Consider `CCCCCCCCOc1ccc2c3cccc4c(OCCCCCCCC)ccc(c5cccc1c52)c43`, for which the fluorescence lifetime is 3.88 ns (in C1CCOC1); 3.65 ns (in Cc1ccccc1); 3.82 ns (in ClC(Cl)(Cl)Cl); 3.77 ns (in ClC(Cl)Cl); 4.17 ns (in ClCCl); 4.01 ns (in c1ccncc1).
As for `Cc1cc(-c2ccc(-c3ccccc3)cc2)nc(-c2ccc(-n3c4ccccc4c4ccccc43)cc2)n1`, the fluorescence lifetime runs as follows: (in C1CCOC1) 3.36 ns; (in CN(C)C=O) 12.2 ns; (in Cc1ccccc1) 1.15 ns; (in ClC(Cl)Cl) 3.19 ns.
For the compound `[NH3+]c1ccc2ccc([O-])cc2c1`, under “in O”, the fluorescence lifetime was found to be 13.5 ns.
Regarding `Cc1cc(=O)oc2cc3c(cc12)c1c2ccccc2c2ccccc2c1c1c2ccccc2c2ccccc2c31`, the fluorescence lifetime (in ClC(Cl)Cl) came to 10.7 ns.
`CCCCC(CC)COc1ccc2nc(-c3ccc(-c4c(C)noc4C)s3)sc2c1` (stereo not drawn): for the setting “in ClCCl”, the fluorescence lifetime was determined as 1.8 ns.
With `Clc1cnc2nn3ccccc3c2n1`, the fluorescence lifetime (in C1CCOC1) is 6.2 ns.
Take `CCCCN1C(=O)c2cc(Oc3ccc(C(C)(C)C)cc3)c3c4c(Oc5ccc(C(C)(C)C)cc5)cc5c(=O)[nH]/c(=C\c6ccccn6)c6cc(Oc7ccc(C(C)(C)C)cc7)c(c7c(Oc8ccc(C(C)(C)C)cc8)cc(c2c37)C1=O)c4c56`: the fluorescence lifetime reads like this: (in C1CCOC1) 3.33 ns; (in Cc1ccccc1) 3.57 ns; (in ClCCl) 4.05 ns.
Regarding `Cc1ccc(-n2cccc2)cc1`, the fluorescence lifetime is, setting by setting: (in CC#N) 5.5 ns; (in CCCCCC) 4 ns.
In the case of `COc1ccc2cc(-c3ccc([N+](=O)[O-])cc3)ccc2c1`, the fluorescence lifetime is, setting by setting: (in C1CCOC1) 0.33 ns; (in CC#N) 0.22 ns; (in ClC(Cl)Cl) 1.87 ns; (in ClCCl) 2.04 ns.
Take `CC(C)(C)c1ccc(-c2nc3c4ccccc4c4ccccc4c3n2-c2ccc(C(C)(C)C)cc2)cc1`: the fluorescence lifetime (in ClCCl) worked out at 6.4 ns.
The compound `Nc1ccc2ccc3cccc4ccc1c2c34` showed a fluorescence lifetime (in C1CCCCC1) of 5.6 ns.
As to `c1ccc(-c2nc(-c3ccc(N4c5ccccc5C(c5ccccc5)(c5ccccc5)c5ccccc54)cc3)cc(-c3ccc(N4c5ccccc5C(c5ccccc5)(c5ccccc5)c5ccccc54)cc3)n2)cc1`, the fluorescence lifetime (in O=P(c1ccccc1)(c1ccccc1)c1ccc2oc3ccc(P(=O)(c4ccccc4)c4ccccc4)cc3c2c1) amounted to 11 ns.
`CCCCc1cc(-c2cccc(COC)c2)oc1-c1cccc(COC)c1` displayed a fluorescence lifetime (in ClC(Cl)Cl) of 1.35 ns.
For the compound `CCOC(=O)C1=CN(c2ccccc2)C=CC1c1ccccc1` (stereo not drawn), the fluorescence lifetime (in C1CCOC1) stood at 7.14 ns and the fluorescence lifetime (in CO) was determined as 7.55 ns.
In the case of `Cc1cc(=O)[nH]c(=O)[nH]1`, the fluorescence lifetime (in CC#N) stood at 0.0001 ns.
Consider `CCOC(=O)c1ccc(NC(=O)COc2cc3c4c([nH]c3c(C)c2C)C(=O)CCC4)cc1`, for which the fluorescence lifetime was 1.23 ns (in C1COCCO1); 1.04 ns (in CC#N); 1.26 ns (in CCO); 2.12 ns (in CS(C)=O); 1.1 ns (in Cc1ccccc1).
Compound `Cc1cc(C)c(C)c(-c2ccc3cc(C)c(=O)oc3c2)c1C` came in with a fluorescence lifetime (in C1CCCCC1) of 0.84 ns, a fluorescence lifetime (in CC#N) of 1.07 ns and a fluorescence lifetime (in CO) of 1.43 ns.
On to `C(=C\c1c2ccccc2cc2ccccc12)/c1ccc2ccccc2c1`, for which the fluorescence lifetime is 3.3 ns (in CC1CCCCC1) and 3.6 ns (in CC#N).
In the case of `CN(C)c1ccc(/C=C2\CC/C(=C\c3ccc(N(C)C)cc3)C2=O)cc1`, the fluorescence lifetime was 0.6 ns (in C1CCOC1); 0.5 ns (in C1COCCO1); 0.54 ns (in CC#N); 0.74 ns (in CC(C)=O); 0.68 ns (in CC(C)O); 0.34 ns (in CCO). Besides, the fluorescence lifetime was 0.59 ns (in CCOC(C)=O); 0.92 ns (in CN(C)C=O); 0.29 ns (in CO); 0.85 ns (in CS(C)=O); 0.48 ns (in Cc1ccccc1); 0.37 ns (in ClC(Cl)(Cl)Cl). The compound also displayed a fluorescence lifetime (in ClC(Cl)Cl) of 0.57 ns, a fluorescence lifetime (in ClCCl) of 0.77 ns and a fluorescence lifetime (in S=C=S) of 0.51 ns.
As for `Cc1ccccc1[B-]1(c2ccccc2C)n2nc(C(F)(F)F)cc2-c2c3ccccc3cc[n+]21`, the fluorescence lifetime by setting is: (in C1CCCCC1) 0.525 ns; (in Cc1ccccc1) 0.425 ns; (in ClCCl) 0.938 ns.
Take `c1ccc(-c2cc3cc4cccc5c(-c6ccccc6)cc6cc7cccc2c7c3c6c45)cc1`: the fluorescence lifetime (in ClCCl) came to 4.21 ns.
For the compound `Fc1cccc(-[c+]2c3ccccc3sc3ccccc32)c1`, where the note is “in CC#N”, the fluorescence lifetime is 1.3 ns.
In turn, `COc1ccc(C#Cc2c3ccccc3c3n2[B-](F)(F)[N+]2=C(C)C=C(C)C2=C3)cc1` had a fluorescence lifetime (in CCCCCC) of 5.2 ns, a fluorescence lifetime (in CCCCCCCCO) of 4.65 ns, a fluorescence lifetime (in CCOC(C)=O) of 4.93 ns and a fluorescence lifetime (in CN(C)C=O) of 4.41 ns.
Consider `CCCCCCCCOc1cc(/C=C/c2cc[n+](Cc3ccc(C)cc3)cc2)c(OCCCCCCCC)cc1/C=C/c1cc[n+](Cc2ccc(C)cc2)cc1`, for which the fluorescence lifetime (in ClCCl) was found to be 1.23 ns.
The compound `Cc1cc(C)c(-c2nnc(-c3ccc(-n4c5ccccc5c5ccccc54)c(C)c3)o2)c(C)c1` came in with a fluorescence lifetime (in CCO) of 1.94 ns.
For `c1ccc2c(c1)CCc1ccccc1N2c1c2ccccc2c(N2c3ccccc3CCc3ccccc32)c2ccccc12`, where the note is “in Cc1ccccc1”, the fluorescence lifetime is 34 ns.
Compound `COc1ccc(Oc2ccc3c4c(cccc24)C(=O)N(c2c(C(C)C)cccc2C(C)C)C3=O)cc1` displayed a fluorescence lifetime (in ClCCl) of 4.9 ns.
For `Nc1cccc2c1-c1ccccc1C2=O`, the fluorescence lifetime by setting is: (in C1CCCCC1) 3.2 ns; (in CC#N) 4.2 ns; (in c1ccccc1) 9.3 ns.
`CCn1c2ccccc2c2cc(-c3cc(-c4ccc5c(c4)c4ccccc4n5CC)nc(C#N)n3)ccc21`: under “in C1CCOC1”, the fluorescence lifetime came to 2.57 ns.
Same read-out and setting: the figure for `CCN(CC)c1ccc(-c2nc3c(nc2-c2ccc(B(c4c(C)cc(C)cc4C)c4c(C)cc(C)cc4C)cc2)c2ccccc2n3C)cc1` is 2.33 ns.
